Assay results taken from PubChem BioAssay AID1117350 (Cheminformatics & Chemogenomics Research Group (CCRG), …, 2015).
The source made the active and inactive calls. No rule for the calls is given here.

System: HeLa, chromatin condensation phenotype imaging
Assay: HeLa chromatin condensation increase, dose response, imaging, IC50 (AID 1117350)

IC50	SMILES
> 10 µM (inactive)	CC(C)c1c(C(=O)Nc2ccccc2)c(-c2ccccc2)c(-c2ccc(F)cc2)n1CC[C@@H](O)C[C@@H](O)CC(=O)O
> 10 µM (inactive)	OC[C@H]1O[C@@H](n2cnc3c(=S)nc[nH]c32)[C@H](O)[C@@H]1O
> 10 µM (inactive)	COc1ccc(-c2ccc3cc(C(=O)O)ccc3c2)cc1C12CC3CC(CC(C3)C1)C2
> 10 µM (inactive)	CN(C)CCOC(c1ccccc1)c1ccc(Br)cc1 (stereo not drawn)
> 10 µM (inactive)	CC(C)=CCNc1ncnc2c1ncn2[C@@H]1O[C@H](CO)[C@@H](O)[C@H]1O
> 10 µM (inactive)	O=C(O)c1ccc(-n2nc(-c3ccccc3O)nc2-c2ccccc2O)cc1
> 10 µM (inactive)	Cc1ccccc1C(OCCN(C)C)c1ccccc1 (stereo not drawn)
> 10 µM (inactive)	Cc1c(C)c2c(c(C)c1O)CCC(C)(COc1ccc(CC3SC(=O)NC3=O)cc1)O2 (stereo not drawn)
4.29 µM	C=CC(=O)Nc1cc2c(Nc3ccc(F)c(Cl)c3)ncnc2cc1OCCCN1CCOCC1
> 10 µM (inactive)	CC(=O)N(O)CCCCCNC(=O)CCC(=O)N(O)CCCCCNC(=O)CCC(=O)N(O)CCCCCN
0.0807 µM	CN1CC[C@H](c2c(O)cc(O)c3c(=O)cc(-c4ccccc4Cl)oc23)[C@H](O)C1

SMILES	IC50
C[C@@]12C(=O)OC(=O)[C@]1(C)C1CCC2O1	8.5 µM (inactive)
O=C1C2CC=CCC2C(=O)N1SC(Cl)(Cl)Cl (stereo not drawn)	6.14 µM (inactive)
